Patent US10000521B2 (priority 2013, dated 2018)

What was measured:
HCV replicon = assay: IC50 assay with HCV luciferase replicon cell-line; type: cell-based; settings: Hepatitis C virus, Huh-7; Huh7 cell line containing HCV replicon with luciferase reporter, 48 h
Description: Plating Cells: The cells used in these assays were a liver-derived Huh7 cell line containing an HCV replicon bearing a luciferase reporter gene. The Huh7 cell-line can be obtained from various sources including the Japanese Collection of Research Bioresources (JCRB), Osaka, Japan. The Huh7 cell line containing an HCV replicon bearing a luciferase reporter gene can be prepared essentially as described by Vrolijk J M, et al. (J Virol Methods. (2003) 110(2):201-9). Cells were passaged when they reached about 70% confluency.
These 0.5 mM dilutions were then used to further serially dilute the compounds in DMEM+2% FBS+0.5% DMSO to keep the concentration of DMSO in each condition identical.
The Glo Lysis Buffer and the Bright Glow reagent was allowed to warm to room temperature for about 30 min in the dark. […] The media was removed from cells, and the cells were gently washed with about 100 μL of phosphate buffered saline (PBS). […] It should be noted that luciferin has a half-life of approximately 30 min at room temperature after it is added to the plate. […] The data was saved and used to calculate the percent inhibition of luciferase activity at each drug concentration. […] Curve equation: (m1−m2)/(1+(x/m3)^m4); m1=100; m2=0.01; m3=0.01; m4=0.01; the equation is: […]

Huh7 cells = assay: TC50 MTS cell viability assay with Huh7 cells (48 h); type: cell-based; settings: Homo sapiens, Huh-7
Description: Plating Cells: Huh7 cells (a hepatocellular carcinoma cell-line; these cells can be obtained from the Japanese Collection of Research Bioresources (JCRB), Osaka, Japan) were used to determine the TC50 for representative compounds of the present invention. Briefly, Huh7 cells were passaged when they reached about 70% confluency. The cells were counted using a hemocytometer following dilution of the cells to about 0.5×10^5 cells per mL in DMEM with 10% fetal bovine serum (FBS). The cells were plated in a clear 96-well plate (about 5,000 cells in 100 μL per well). The cells were allowed to attach for about 24 hours at 37° C.
Treating of the cells: The DMEM media without phenol red containing 2% FBS was pre-warmed to 37° C. […] Following dilution, the final DMSO concentration was about 0.5% (v/v). […] The plates were then returned to the incubator and incubated with the cells for 48 h at 37° C.
(§1) The 96-well plate with cells incubated with test compound was removed from the 37° C. incubator. The appropriate amounts of the MTS and PMS reagents were removed from the kit and mixed well. The reagents were maintained in the dark due to their light sensitivity. […] The solutions were mixed completely in the wells prior to each reading.

[1] = Stability test at different pH conditions (HPLC); type: physicochemical
Description: HPLC analysis: 100 μl of the incubated solution was loaded onto a Vydac C18 analytical column 4.6/250, and the mobile phase run at 1 mL/min water with the following procedures: a. Inject 100 μl the incubated solution; b. Water for 5 minutes at 1 ml/min; c. 0-100% acetonitrile over 30 minutes; d. Back to 100% water.
Analysis: Standard HPLC analysis software was used to quantitate the area under each peak. Degradation peaks were quantitated as a percentage of the peak of the same amount of control sample (no heat treatment).

Huh7 = assay: TC50 assay in different human cell lines (96 h), Huh7; type: cell-based; settings: Huh-7, about 96 h, MTS assay
Description: as §1
(§2) Plating Cells: Huh7, HEPG2, HEK293, MCF-7, or BxPC3 cells (which can be obtained from American Type Culture Collection, ATCC) were passaged when they were about 70% confluent. […] The cells following passaging were allowed to attach for about 24 hours at 37° C.
(§3) The plates were then returned to the incubator, and cells incubated for about 96 h at 37° C.
(§4) MTS Assay: Assay was carried out as described above.

HEPG2 = assay: TC50 assay in different human cell lines (96 h), HEPG2; type: cell-based; settings: about 96 h, MTS assay
Description: as §1, §2, §3, §4

[2] = TC50 assay in different human cell lines (96 h), HEK293; type: cell-based; settings: HEK293 cells, about 96 h, MTS assay
Description: as §1, §2, §3, §4

MCF-7 = assay: TC50 assay in different human cell lines (96 h), MCF-7; type: cell-based; settings: MCF7, about 96 h, MTS assay
Description: as §1, §2, §3, §4

BxPC3 = assay: TC50 assay in different human cell lines (96 h), BxPC3; type: cell-based; settings: BXPC-3, about 96 h, MTS assay
Description: as §1, §2, §3, §4

PK9 cells [3] = assay: TC50 assay with inhibition of ENT1, PK9 cells; type: cell-based; settings: Homo sapiens, PK9, 48 h, PK9 cells (48 h)
Description: Plating Cells: Huh7 cells or PK9 cells were seeded in 96-well plates at a density of 5,000 cells/well or 2,500 cells/well, respectively, and the plates were incubated at 37° C. for 24 h to allow for cell attachment.
Treatment with equilibrative nucleoside transporter 1 (ENT1) Inhibitor: The media was then removed from the plates and replaced with media containing 2% FBS, 0.5% DMSO, and either 10 μM dipyramidole or 10 μM S-(4-nitrobenzyl)-6-thioinosine (NBTI).
Treating with Control & Compound 1: After incubation with the ENT1 inhibitor, the cells were treated with each compound at final concentrations ranging from 500 μM to 0 μM in triplicate in media containing 2% FBS, 0.5% DMSO, and either 10 μM dipyridamole or 10 μM NBTI.

PK9 cells [4] = assay: TC50 assay, effect of deficient deoxycytidine kinase activity, PK9 cells; type: cell-based; settings: Homo sapiens, 48 h, read-out: TC50 (μM), 48 h treatment
Description: (§5) Plating Cells: PK9 or RPK9 cells were seeded in 96-well plates at a density of 2,500 cells/well or 2,500 cells/well, respectively, and the plates were incubated at 37° C. for 24 h to allow for cell attachment.
(§6) Treating with Control & Compound 1: The cells were treated with each compound at final concentrations ranging from 500 μM to 0 μM in triplicate in media containing 2% FBS and 0.5% DMSO.
(§7) The RPK9 cells are described in Saiki, T., et al. (2012) Biochim. Biophys. Res. Commun. 421, 98-104).

RPK9 cells = assay: cells; settings: Homo sapiens, 48 h, read-out: TC50 (μM), 48 h treatment
Description: as §5, §6, §7

[5] = In vivo pharmacokinetic assessment (LC-MS/MS, plasma and liver); settings: mice, oral, plasma and liver samples
Description: All pharmacokinetic studies were performed with CD-1 ICR mice (female, 4-6 week old; 20-30 gram body weight), and three mice were used at each dose level and at each time point for each compound tested. […] Tetrahydrouridine (THU) was immediately added to plasma samples at a final concentration of 25 μg/mL to prevent deamination of dFdC after collection, and the samples were subsequently flash-frozen and stored at −80° C. until analysis. Approximately 200-300 mg of each mouse liver was dissected and homogenized in 150 μL of phosphate buffered saline (PBS) containing 25 μg/mL THU, resulting in 2 mg liver/μL saline homogenate. These liver homogenates were also flash-frozen and stored at −80° C. until analysis. Equivalent amounts of blood plasma and liver tissue were also collected from untreated mice and used to prepare calibration standards and quality controls. An LC-MS/MS assay was utilized to simultaneously quantify the concentrations of compound 1, dFdC and dFdU in each of the plasma and liver samples.

With `O=C(Nc1ccn(C2O[C@H](CO)[C@@H](O)C2(F)F)c(=O)n1)c1cc2c(cc1[N+](=O)[O-])OCO2` (stereo in doubt) [Compound 9] the IC50 (HCV replicon) was 0.047 ± 0.004 µM and the CC50 (Huh7 cells) was over 500 µM.
For `O=C(Nc1ccn(C2O[C@H](CO)[C@@H](O)C2(F)F)c(=O)n1)c1ccc2c(c1)OCCO2` (stereo partly drawn) [Compound 2, N-(1-((4R,5R)-3,3-difluoro-4-hydroxy-5-(hydroxymethyl)tetrahydrofuran-2-yl)-2-oxo-1,2-dihydropyrimidin-4-yl)-2,3-dihydrobenzo[b][1,4]dioxine-6-carboxamide], the IC50 (HCV replicon) was 0.127 ± 0.009 µM, the CC50 (Huh7 cells) was 855 ± 166 µM and the “Compound remaining (%)” value ([1]; Pretreatment) was 100%. For the same molecule, the “Compound remaining (%)” value ([1]; pH 1, 40° C., 4 h) was 71%, the “Compound remaining (%)” value ([1]; pH 2, 40° C., 4 h) was 100% and the “Compound remaining (%)” value ([1]; pH 4, 40° C., 4 h) was 100%. The “Compound remaining (%)” value ([1]; pH 6, 40° C., 4 h) was 100%, the “Compound remaining (%)” value ([1]; pH 8, 40° C., 4 h) was 100% and the CC50 (Huh7) was 3.34 µM. The CC50 (HEPG2) was 1.13 µM, the CC50 at 96 h [2] was 5.61 µM and the CC50 (MCF-7) was 1.44 µM. For the same molecule, the CC50 (BxPC3) was 1.15 µM.
With `O=C(Nc1ccn([C@@H]2O[C@H](CO)C(O)C2(F)F)c(=O)n1)c1ccc2c(c1)OCCCO2` (some centres unmarked) [Compound 3] the IC50 (HCV replicon) was 0.092 ± 0.008 µM and the CC50 (Huh7 cells) was 881 ± 287 µM.
With `CC1(C)Cc2ccc(C(=O)Nc3ccn([C@@H]4O[C@H](CO)C(O)C4(F)F)c(=O)n3)cc2O1` (some centres unmarked) [Compound 4] the IC50 (HCV replicon) was 0.177 ± 0.045 µM and the CC50 (Huh7 cells) was 1160 ± 204 µM.
With `O=C(Nc1ccn([C@@H]2O[C@H](CO)C(O)C2(F)F)c(=O)n1)c1ccc2c(c1)CCO2` (some centres unmarked) [Compound 5] the IC50 (HCV replicon) was 0.145 ± 0.017 µM and the CC50 (Huh7 cells) was 954 ± 247 µM.
Work on `O=C(Nc1ccn([C@@H]2O[C@H](CO)C(O)C2(F)F)c(=O)n1)c1c(Br)ccc2c1OCO2` (some centres unmarked) [Compound 6] yielded an IC50 (HCV replicon) of 0.34 ± 0.045 µM and a CC50 (Huh7 cells) of 2210 ± 821 µM.
In the case of `O=C(Nc1ccn([C@@H]2O[C@H](CO)C(O)C2(F)F)c(=O)n1)c1ccc2c(c1)OC(F)(F)O2` (some centres unmarked) [Compound 7], the IC50 (HCV replicon) is reported as 0.046 ± 0.027 µM and the CC50 (Huh7 cells) is reported as 188 ± 50 µM.
With `Cc1cc2c(cc1C(=O)Nc1ccn([C@@H]3O[C@H](CO)C(O)C3(F)F)c(=O)n1)OCCO2` (some centres unmarked) [Compound 8] the IC50 (HCV replicon) was 1.69 ± 1.06 µM and the CC50 (Huh7 cells) was 626 ± 191 µM.
With `Nc1ccn([C@@H]2O[C@H](CO)[C@@H](O)C2(F)F)c(=O)n1` [Gem, 4-amino-1-((2R,4R,5R)-3,3-difluoro-4-hydroxy-5-(hydroxymethyl)tetrahydrofuran-2-yl)pyrimidin-2(1H)-one, reference compound] the IC50 (HCV replicon) was 0.058 ± 0.006 µM, the CC50 (PK9 cells [3]; 10 μM NBTI) was 1.92 ± 0.78 µM and the CC50 (PK9 cells [3]; 10 μM dipyridamole) was 193 ± 20 µM. It also gave a CC50 (PK9 cells [3]; ENT1 inhibitor: None) of 0.095 ± 0.035 µM, a CC50 (PK9 cells [4]) of 0.095 ± 0.035 µM and a CC50 (RPK9 cells) of over 500 µM. It also gave a CC50 (Huh7) of 3.41 µM, a CC50 (HEPG2) of 0.311 µM and a CC50 (MCF-7) of 0.067 µM. The CC50 (BxPC3) was 0.0029 µM and the “first-pass metabolism to inactive metabolite dFdU” value [5] was “extensive first-pass metabolism”.
